The target of assay [1] is T1, 5-hydroxytryptamine receptor 7 (Homo sapiens, UniProt P34969). Kind of assay: Displacement of [3H]LSD from human 5HT7 in sf9 cells at 1 uM. In kind it is cell-based. A general note: In a radioligand displacement assay an active substance lowers the binding of a labelled ligand.
Assay [2] concerns the target T1, 5-hydroxytryptamine receptor 7. Kind of assay: Displacement of [3H]LSD from human 5HT7 in sf9 cells at 0.01 uM. In kind it is cell-based.
The target in assay [3] is T2, 5-hydroxytryptamine receptor 1A (Rattus norvegicus) (UniProt P19327).
T2 sequence (whole entry): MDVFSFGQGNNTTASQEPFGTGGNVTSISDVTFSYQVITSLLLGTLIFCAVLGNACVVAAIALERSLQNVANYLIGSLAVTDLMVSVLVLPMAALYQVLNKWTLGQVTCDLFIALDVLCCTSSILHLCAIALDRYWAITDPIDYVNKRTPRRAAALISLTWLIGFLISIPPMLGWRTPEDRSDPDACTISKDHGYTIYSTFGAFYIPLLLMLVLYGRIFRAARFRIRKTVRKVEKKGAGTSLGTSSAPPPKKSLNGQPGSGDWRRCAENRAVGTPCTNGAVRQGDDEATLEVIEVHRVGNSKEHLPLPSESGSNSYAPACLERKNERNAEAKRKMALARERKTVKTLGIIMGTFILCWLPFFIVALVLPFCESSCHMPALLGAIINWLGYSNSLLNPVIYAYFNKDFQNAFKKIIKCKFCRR
Kind of assay: Binding affinity to rat 5HT1A at 1 uM.

The target of assay [4] is T2, 5-hydroxytryptamine receptor 1A (Rattus norvegicus). Kind of assay: Binding affinity to rat 5HT1A at 0.01 uM.
The nature of assay [5]: Selectivity ratio of rat 5HT1A to human 5HT7.
The target of assay [6] is T1, 5-hydroxytryptamine receptor 7. Kind of assay: Displacement of [3H]LSD from human 5HT7 in sf9 cells. Type of assay: cell-based.
The target in assay [7] is T3, 5-hydroxytryptamine receptor 1A (Rattus norvegicus, UniProt P19327).
T3 sequence (P19327 whole entry): T2 sequence (whole entry)
Nature of the assay: Binding affinity to rat 5HT1A.

In assay [8] the target is 5-hydroxytryptamine receptor 7 (Rattus norvegicus) (UniProt P32305). Nature of the assay: Antagonist activity at 5HT7 receptor stimulated aldosterone secretion from rat adrenal cortex. In kind it is functional, tissue-based.

The text below walks through data of ChEMBL document CHEMBL1147987, “Novel aminoethylbiphenyls as 5-HT7 receptor ligands” (Bioorg Med Chem Lett, 2007).

By inhibition is commonly meant the share of the control response that was lost under treatment. A higher inhibition goes with strong suppression. As a reminder, the Ki is a dissociation constant, usually derived from enzyme kinetics or from competition with a known ligand. Low values mean tighter binding, high ones weaker binding. As a reminder, the pKb is the negative decadic logarithm of the Kb, by convention in mol/L. A low value points to a high Kb.

T1 sequence (P34969 whole entry): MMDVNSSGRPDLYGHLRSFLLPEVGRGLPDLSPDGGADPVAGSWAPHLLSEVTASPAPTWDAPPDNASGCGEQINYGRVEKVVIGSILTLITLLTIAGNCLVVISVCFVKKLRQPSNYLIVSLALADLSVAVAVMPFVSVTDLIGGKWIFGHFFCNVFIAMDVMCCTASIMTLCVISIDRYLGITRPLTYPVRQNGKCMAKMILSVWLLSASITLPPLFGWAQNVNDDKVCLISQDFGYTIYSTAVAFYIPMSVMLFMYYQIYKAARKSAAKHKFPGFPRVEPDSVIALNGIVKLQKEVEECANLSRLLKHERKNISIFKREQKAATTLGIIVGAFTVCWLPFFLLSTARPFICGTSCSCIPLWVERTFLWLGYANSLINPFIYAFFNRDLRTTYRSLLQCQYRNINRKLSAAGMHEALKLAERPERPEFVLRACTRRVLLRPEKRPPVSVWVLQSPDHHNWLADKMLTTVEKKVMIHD
Chain of 5-hydroxytryptamine receptor 7 (Rattus norvegicus) (P32305 whole entry): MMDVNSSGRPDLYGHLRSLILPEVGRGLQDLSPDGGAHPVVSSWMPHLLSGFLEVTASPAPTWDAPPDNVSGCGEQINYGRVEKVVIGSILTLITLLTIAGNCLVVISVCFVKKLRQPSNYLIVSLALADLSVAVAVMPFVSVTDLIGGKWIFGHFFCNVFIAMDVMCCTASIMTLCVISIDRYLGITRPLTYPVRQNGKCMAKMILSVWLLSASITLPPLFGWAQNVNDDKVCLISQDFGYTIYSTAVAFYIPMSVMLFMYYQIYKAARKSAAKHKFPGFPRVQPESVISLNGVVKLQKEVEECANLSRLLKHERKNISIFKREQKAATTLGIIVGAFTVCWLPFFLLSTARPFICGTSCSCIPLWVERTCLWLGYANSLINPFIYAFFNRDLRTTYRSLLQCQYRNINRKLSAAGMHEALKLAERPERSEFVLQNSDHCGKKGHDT

In the case of `COc1cccc(OC)c1-c1cccc(CCN2CCOCC2)c1`, the inhibition stood at 9% in assay [1], 0% in assay [2], 14% in assay [3] and 7% in assay [4].

As to `Cc1cccc(C)c1-c1cccc(CCN(C)C)c1`, the inhibition in assay [1] was 93%; in assay [2], 73%; in assay [3] it was 33%; in assay [4] it was 6%. Moreover, the Ratio Ki in assay [5] amounted to 60. Further, the Ki in assay [6] is 0.0062 µM; in assay [7], 2.25 µM.

As for `Cc1ccccc1-n1ccc(CCN)c1`, the inhibition in assay [1] was 62%; in assay [2], 5%; in assay [3], 16%; in assay [4] it was 0%.

Consider `COc1cccc(OC)c1-c1cccc(CCN(C)C)c1`, for which the inhibition came out at 100% in assay [1], 50% in assay [2], 18% in assay [3] and 3% in assay [4]. The Ratio Ki in assay [5] was found to be 60. Moreover, the Ki stood at 0.0086 µM in assay [6] and 4.83 µM in assay [7]. The Activity entry in assay [8] (filed as partial agonist) is “Partial agonist”.

`Cc1cccc(-n2ccc(CCN)c2)c1C`: the inhibition in assay [1] turned out to be 48%; in assay [2], 25%; in assay [3], 17%; in assay [4] it was 0%.

`Cc1ccccc1-n1ccc(CCN(C)C)c1`: the inhibition in assay [1] was found to be 87%; in assay [2] it was 16%; in assay [3], 41%; in assay [4], 14%.

For `Cc1cc(C)c(-n2ccc(CCN(C)C)c2)c(C)c1`, the inhibition is 56% in assay [1], 3% in assay [2], 20% in assay [3] and 0% in assay [4].

Regarding `Cc1ccccc1-c1cccc(CCN(C)C)c1`, the inhibition in assay [1] came to 81%; in assay [2], 72%; in assay [3] it was 85%; in assay [4], 1%. Moreover, the Ki in assay [6] worked out at 0.0076 µM; in assay [7], 0.443 µM. The compound further had a pKb in assay [8] of 7.03.

As for `Cc1cc(C)c(-n2ccc(CCN)c2)c(C)c1`, the inhibition in assay [1], in assay [2], in assay [3] and in assay [4] was 0% in each case.

As for `COc1ccc(-c2cccc(CCN(C)C)c2)cc1`, the inhibition in assay [1] was 52%; in assay [2] it was 9%; in assay [3], 37%; in assay [4] it was 0%.

Take `CN(C)CCc1cccc(-c2ccsc2)c1`: the inhibition worked out at 87% in assay [1], 12% in assay [2], 64% in assay [3] and 20% in assay [4].

In the case of `CN(C)CCc1cccc(-c2cccs2)c1`, the inhibition was 75% in assay [1], 12% in assay [2], 63% in assay [3] and 6% in assay [4].

In the case of `CN(C)CCc1cccc(-c2ccccc2)c1`, the inhibition in assay [1] was determined as 70%; in assay [2], 18%; in assay [3], 18%; in assay [4], 2%.

Consider `COc1ccc(-c2cccc(CCN(C)C)c2)cc1OC`, for which the inhibition was 38% in assay [1], 0% in assay [2], 52% in assay [3] and 12% in assay [4].

As for `COc1ccccc1-c1cccc(CCN(C)C)c1`, the inhibition in assay [1] is 69%; in assay [2] it was 23%; in assay [3] it was 48%; in assay [4], 12%. Moreover, the Ki came out at 0.0084 µM in assay [6] and 0.531 µM in assay [7].

`Cc1ccccc1-c1cccc(CCN)c1`: the inhibition was 92% in assay [1], 71% in assay [2], 37% in assay [3] and 0% in assay [4]. Further, the Ki in assay [6] was 0.0075 µM; in assay [7], 1.47 µM.
